Measured values as given in patent publication US20200061007A1, “CANCER STEM CELL PROLIFERATION INHIBITOR” (NATIONAL INSTITUTE OF ADVANCED INDUSTRIAL SCIENCE AND …, priority 2014, published 2020).

Legend:
[1] = tested on: human breast cancer cell line MCF-7; assay: Growth inhibition of MCF-7 in vitro; format: cell-based; conditions: Homo sapiens, MCF7; MCF-7, 96 hours of exposure, RPMI1640 with 2% FBS
Description: (§1) A human breast cancer cell line MCF-7, containing cells positive for cancer stem cell markers, was cultured in RPMI1640 medium supplemented with 2% FBS, and the growth inhibitory action by the combination of Am80 and 5-AZ was studied. The IC50 values of the agents determined by 96 hours of the exposure were 1 μM and 20 μM, respectively. Thus, in order to study the growth inhibitory action, Am80 was used within the concentration range of 0.125 μM to 1 μM with a common ratio of 2, and 5-AZ was used within the concentration range of 2.5 μM to 20 μM with a common ratio of 2. In cases of use of these agents in combination, the growth inhibitory action was studied using these concentrations.

[2] = tested on: Human Pancreatic Cancer Cell Panc-1 Spheroids; assay: CD24+/CD44+/ESA+ cells by flow cytometry in Panc-1 spheroids; format: cell-based
From the text: Pancreatic cancer cells prepared by performing suspension culture in the presence of Am80 for 1 week was subjected to analysis of expression of cancer stem cell surface markers at the protein level by flow cytometry using fluorescence-labeled primary antibodies.

[3] = tested on: Pdx1, glucagon gene expression in human pancreatic cancer cell spheroids; assay: Quantitative RT-PCR of pancreatic tissue differentiation markers; format: cell-based; conditions: suspension culture with Am80 for 1 week
Description: Subsequently, total RNA was extracted from pancreatic cancer cells prepared by performing suspension culture in the presence of Am80 for 1 week, and quantitative RT-PCR was carried out using primers specific to pancreatic tissue-specific differentiation markers.

[4] = tested on: human pancreatic cancer cells subcutaneously transplanted to nude mice; assay: Pathologic samples of tumor, morphology of cellular tissue; format: in vivo; conditions: Am80 3 mg/kg/day for 1 month, vs control
Description: Pancreatic cancer cells (1×10^6 cells) containing pancreatic cancer stem cells were subcutaneously transplanted to nude mice. Mice in which tumor formation was found 2 weeks later were subjected to administration of Am80 for 1 month at 3 mg/kg/day. Pathologic samples of each tumor were prepared to evaluate morphology of cellular tissue.

[5] = tested on: CD133-positive human pancreatic cancer stem cells; assay: Cell migration in Boyden chambers; format: cell-based; conditions: Am80 1 μM, CD133-positive fraction
Description: Pancreatic cancer cells containing pancreatic cancer stem cells were separated into CD133-positive cells and negative cells using magnetic antibody beads, and Am80 was added at 1 μM to the fractions, followed by culturing the cells in Boyden chambers and then observing the cells migrated into the back side of the membrane.

[6] = tested on: human pancreatic cancer cells containing pancreatic cancer stem cells; assay: Liver metastasis after transplantation to the pancreas of nude mice; format: in vivo; conditions: Am80 3 mg/kg/day for 1 month
Description: Pancreatic cancer cells (1×10^6 cells) containing pancreatic cancer stem cells were transplanted to the pancreas of nude mice, and the size of a tumor formed by metastasis to the liver was measured 1 month later. Am80 was administered at 3 mg/kg/day for 1 month.

[7] = tested on: human prostate cancer cell line LNCaP; assay: Tumor volume, LNCaP/nude mice; format: in vivo
Description: A tumor piece of a human prostate cancer cell line LNCaP containing cells positive for cancer stem cell markers was subcutaneously transplanted to the dorsal part of each of 6-week-old female BALB/cAJc1-nu nude mice (4 mice/group) using a trocar needle. At the time when the tumor volume reached 100 to 200 mm^3, the administration was started. Am80 was orally administered once a day at a dose of 1 mg/kg for 21 continuous days, and DXL was intravenously administered at a dose of 5 mg/kg from Day 1, 3 times at intervals of 4 days. In the combination group, the agents were administered at the same doses as, and by the same administration methods as, those in the cases of administration of each single agent. Measurement of the tumor diameter was carried out until the next day of the completion of the administration (Day 22). The longitudinal diameter and the transverse diameter of the tumor were measured using a caliper, and the tumor volume (mm^3) was determined according to the following formula: longitudinal diameter×transverse diameter^2/2. In the control group, physiological saline was intraperitoneally administered from Day 1, 3 times at intervals of 4 days.

[8] = tested on: Human Leukemia Cell Line Kasumi-1; assay: Growth inhibition of Kasumi-1, isobologram; format: cell-based; conditions: Homo sapiens; Kasumi-1, RPMI1640 with 20% FBS
Description: A human leukemia cell line Kasummi-1, containing cells positive for cancer stem cell markers, was cultured in RPMI1640 medium supplemented with 20% FBS, and the growth inhibitory action by the combination of Am80 and 5-AZ was studied using Isobologram. […] These concentrations were taken as 1.0, and the points corresponding to 1.0 in the two axes were connected to each other via a straight line. In cases where the ratio observed for the combination effect is on the line, the effect is additive, and, in cases where the ratio is below the line, the effect is synergistic.

[9] = tested on: human prostate cancer cell line LNCaP; assay: Growth inhibition of LNCaP in vitro; format: cell-based; conditions: Homo sapiens, 96 hours of exposure, RPMI1640 with 10% FBS
Description: as §1, with “prostate” for “breast”, “LNCaP,” for “MCF-7,”, “10%” for “2%”, “The IC50 values of the agents determined by 96 hours of the exposure were 1 μM and 20 μM, respectively.” left out, “1.56” for “2.5”, “12.5” for “20”

- IC50 [1]: 1000 nM
- IC50 [8]: 1000 nM
- IC50 [9]: 2000 nM
SMILES: CC1(C)CCC(C)(C)c2cc(NC(=O)c3ccc(C(=O)O)cc3)ccc21 [Am80, tamibarotene]
- abundance of cells positive for CD24+/CD44+/ESA+ ([2]; 10 μM Am80, suspension culture 1 week): reduced by half
- abundance of cells positive for CD24+/CD44+/ESA+ ([2]; addition of Am80, suspension culture 1 week): significantly decreased
- gene expression of Pdx1, glucagon and the like [3]: increased gene expression dependently on the Am80 concentration
- morphology of pancreatic cancer tissue [4]: differentiated morphology
- cell migration ability [5]: remarkable suppression
- metastasis of the pancreatic cancer (size of tumor formed by metastasis to the liver) [6]: could be suppressed compared to the control
- tumor volume Day 1 ([7]; Am80 1 mg/kg oral daily 21 days, DXL 5 mg/kg i.v. 3 times at intervals of 4 days, Day 1): 121.3 mm^3
- tumor volume Day 5 ([7]; Am80 1 mg/kg oral daily, DXL 5 mg/kg i.v., Day 5): 162.1 mm^3
- tumor volume Day 9 ([7]; Am80 1 mg/kg oral daily, DXL 5 mg/kg i.v., Day 9): 205.8 mm^3
- tumor volume Day 13 ([7]; Am80 1 mg/kg oral daily, DXL 5 mg/kg i.v., Day 13): 282.8 mm^3
- tumor volume Day 17 ([7]; Am80 1 mg/kg oral daily, DXL 5 mg/kg i.v., Day 17): 409.9 mm^3
- tumor volume Day 22 ([7]; Am80 1 mg/kg oral daily, DXL 5 mg/kg i.v., Day 22): 436.3 mm^3
